The text below walks through data of PubChem BioAssay AID232 (DTP/NCI, 2004).

Values joined by “and” are separate entries in the source; they are usually repeats but may differ in a detail not shown here. Equal entries are not always repeated. Inconclusive results and toxic doses are left out.

For the assay, the system named is Gardner 6C3HED lymphosarcoma ip, C3AKF1 mice, survival T/C. As to the kind of experiment: NCI In Vivo Anticancer Drug Screen. Data for tumor model Lymphosarcoma Gardner 6C3HED (intraperitoneal) in C3AKF1 (CHKRF1) mice. Particulars: endpoint: survival time, mean or median, schedule: Q01DX010 (ip), higher = longer survival. How it is done: The antitumor activity of compounds was measured in mice bearing transplantable tumors. Survival or tumor size were measured and the results are expressed as the measurement made in the treated group (T) divided by the measurement made in the vehicle treated control group (C). The tumor model used in this assay is Lymphosarcoma Gardner 6C3HED (intraperitoneal) in C3AKF1 (CHKRF1) mice

Setting [1] is: dose: 12.5 mg/kg/injection, vehicle: saline.
Where [2] appears, read: dose: 50.0 mg/kg/injection, vehicle: saline.
[3] abbreviates: dose: 100.0 mg/kg/injection, vehicle: saline.
Where [4] appears, read: dose: 8.0 mg/kg/injection, vehicle: saline.
Where [5] appears, read: dose: 16.0 mg/kg/injection, vehicle: saline.
Where [6] appears, read: dose: 32.0 mg/kg/injection, vehicle: saline.
[7] abbreviates: dose: 64.0 mg/kg/injection, vehicle: saline.
Setting [8] is: dose: 10.0 mg/kg/injection, vehicle: saline.
[9] abbreviates: dose: 20.0 mg/kg/injection, vehicle: saline.
The mark [10] stands for this setting: dose: 40.0 mg/kg/injection, vehicle: saline.
The mark [11] stands for this setting: dose: 25.0 mg/kg/injection, vehicle: saline.
[12] abbreviates: dose: 6.0 mg/kg/injection, vehicle: saline.
Setting [13] is: dose: 12.0 mg/kg/injection, vehicle: saline.
[14] abbreviates: dose: 18.8 mg/kg/injection, vehicle: saline.
The mark [15] stands for this setting: dose: 37.5 mg/kg/injection, vehicle: saline.
Where [16] appears, read: dose: 75.0 mg/kg/injection, vehicle: saline.
Setting [17] is: dose: 150.0 mg/kg/injection, vehicle: saline.
The mark [18] stands for this setting: dose: 80.0 mg/kg/injection, vehicle: saline.
The mark [19] stands for this setting: dose: 4.0 mg/kg/injection, vehicle: other.

For `COS(C)(=O)=O`, the T/C under setting [1] is 111 % of control, the T/C under setting [2] was 300 % of control and the T/C under setting [3] was 176 % of control.
`c1ccc(CNc2ncnc3[nH]ncc23)cc1`: the T/C is, setting by setting: under setting [4], 100 % of control and 119 % of control; under setting [5], 104 % of control and 105 % of control; under setting [6], 90 % of control and 95 % of control; under setting [7], 90 % of control and 95 % of control.
In the case of `O=c1[nH]cc(F)c(=O)[nH]1`, the T/C under setting [8] was 158 % of control, the T/C under setting [9] is 295 % of control and the T/C under setting [10] is 87 % of control.
With `CCN(CC)CCNc1ccc(C)c2sc3ccccc3c(=O)c12`, the T/C under setting [1] is 100 % of control; the T/C under setting [11] was 114 % of control; the T/C under setting [2] was 91 % of control and 114 % of control.
On to `CCOC(N)=O`, for which the T/C by setting is: (dose: 125.0 mg/kg/injection, vehicle: saline) 91 % of control and 100 % of control; (dose: 500.0 mg/kg/injection, vehicle: saline) 95 % of control.
Regarding `Nc1ncnc2[nH]ncc12`, the T/C (dose: 1.5 mg/kg/injection, vehicle: saline) was 95 % of control and 110 % of control; the T/C (dose: 3.0 mg/kg/injection, vehicle: saline) was 100 % of control and 104 % of control; the T/C under setting [12] was 95 % of control; the T/C under setting [13] is 95 % of control; the T/C under setting [5] was 90 % of control.
Take `N=[N+]=CC(=O)OCC(N)C(=O)O` (stereo not drawn): the T/C is 150 % of control (dose: 6.25 mg/kg/injection, vehicle: saline) and 95 % of control under setting [11].
For `O=C(Nc1ccc(C2=NCCN2)cc1)c1ccc(C(=O)Nc2ccc(C3=NCCN3)cc2)c([N+](=O)[O-])c1`, the T/C reads like this: under setting [12], 218 % of control and 272 % of control; under setting [4], 300 % of control; under setting [13], 268 % of control and 300 % of control; (dose: 18.0 mg/kg/injection, vehicle: saline) 163 % of control and 259 % of control.
Take `Nc1nc(SCc2ccccc2)c2[nH]cnc2n1`: the T/C is 95 % of control and 100 % of control under setting [4]; 95 % of control and 104 % of control under setting [5]; 90 % of control and 91 % of control and 104 % of control under setting [6]; 87 % of control and 100 % of control (2×) under setting [7].
Regarding `N#CCSc1ncnc2nc[nH]c12`, the T/C by setting is: (dose: 15.0 mg/kg/injection, vehicle: saline) 100 % of control and 111 % of control; (dose: 30.0 mg/kg/injection, vehicle: saline) 100 % of control; (dose: 60.0 mg/kg/injection, vehicle: saline) 95 % of control and 114 % of control; (dose: 120.0 mg/kg/injection, vehicle: saline) 92 % of control and 95 % of control.
For `CC(=O)Nc1ccc2nc3ccc(NC(C)=O)cc3[n+](-c3ccccc3)c2c1`, the T/C by setting is: under setting [1], 111 % of control; under setting [11], 107 % of control; under setting [2], 103 % of control; under setting [3], 103 % of control.
For `C=CC(CN1CC1)OC(C)=O` (stereo not drawn), the T/C (dose: 2.0 mg/kg/injection, vehicle: saline) was 92 % of control.
With `CS(=O)(=O)OCCCl`, the T/C was 100 % of control under setting [14], 100 % of control under setting [15], 95 % of control under setting [16] and 100 % of control under setting [17].
Regarding `CN(C)c1ccc(/C=C/c2ccnc3ccccc23)cc1`, the T/C runs as follows: (dose: 5.0 mg/kg/injection, vehicle: saline) 96 % of control; under setting [8], 92 % of control; under setting [9], 92 % of control.
`O[C@H](CN1CC1)[C@@H](O)CN1CC1`: the T/C is 96 % of control (dose: 62.5 micrograms/kg/injection, vehicle: saline); 92 % of control (dose: 125.0 micrograms/kg/injection, vehicle: saline); 155 % of control (dose: 250.0 micrograms/kg/injection, vehicle: saline); 151 % of control (dose: 500.0 micrograms/kg/injection, vehicle: saline).
For the compound `Cn1c(N)nc2nc[nH]c2c1=S`, the T/C under setting [8] is 96 % of control, the T/C under setting [9] is 96 % of control, the T/C under setting [10] is 107 % of control and the T/C under setting [18] is 107 % of control.
`C[C@H](N)C(=O)N[C@@H]1[C@H]2C(=C(O)C[C@@H](O)[C@@H]2O)C(=O)O[C@@H]1C`: the T/C runs as follows: under setting [17], 110 % of control; (dose: 300.0 mg/kg/injection, vehicle: saline) 110 % of control and 115 % of control; (dose: 600.0 mg/kg/injection, vehicle: saline) 120 % of control; (dose: 1200.0 mg/kg/injection, vehicle: saline) 115 % of control and 120 % of control.
Take `O=C(Nc1ccc(C2=NCCN2)cc1)c1ccc(C(=O)Nc2ccc(C3=NCCN3)cc2)cc1`: the T/C reads like this: under setting [19], 179 % of control and 186 % of control; (dose: 8.0 mg/kg/injection, vehicle: other) 277 % of control and 300 % of control; (dose: 16.0 mg/kg/injection, vehicle: other) 229 % of control and 300 % of control; (dose: 32.0 mg/kg/injection, vehicle: other) 175 % of control and 200 % of control; (dose: 64.0 mg/kg/injection, vehicle: other) 166 % of control and 200 % of control.
On to `CCCCNc1ncnc2c1cnn2C`, for which the T/C by setting is: (dose: 31.3 mg/kg/injection, vehicle: saline) 100 % of control and 104 % of control; (dose: 62.5 mg/kg/injection, vehicle: saline) 95 % of control and 100 % of control.
As to `O=c1cnn(C2OC(CO)C(O)C2O)c(=O)[nH]1` (stereo not drawn), the T/C (dose: 200.0 mg/kg/injection, vehicle: saline) is 105 % of control and 115 % of control; the T/C (dose: 400.0 mg/kg/injection, vehicle: saline) was 115 % of control; the T/C (dose: 800.0 mg/kg/injection, vehicle: saline) is 110 % of control and 120 % of control; the T/C (dose: 1600.0 mg/kg/injection, vehicle: saline) was 95 % of control.
Regarding `CN(C)c1nc(N(C)C)nc(N(C)C)n1`, the T/C runs as follows: under setting [14], 104 % of control; under setting [15], 104 % of control; under setting [16], 95 % of control and 100 % of control; under setting [17], 100 % of control and 104 % of control.
As to `OCC1OC(n2cnc3c(=S)nc[nH]c32)C(O)C1O` (stereo not drawn), the T/C by setting is: under setting [9], 90 % of control and 95 % of control; under setting [10], 86 % of control; under setting [18], 90 % of control; (dose: 160.0 mg/kg/injection, vehicle: saline) 86 % of control and 90 % of control.
Turning to `O=C(Nc1ccc(C2=NCCCN2)cc1)c1ccc(C(=O)Nc2ccc(C3=NCCCN3)cc2)cc1`, the T/C is 227 % of control and 241 % of control (dose: 1.0 mg/kg/injection, vehicle: other); 300 % of control (dose: 2.0 mg/kg/injection, vehicle: other); 86 % of control under setting [19].
`CSCS(=O)C[C@H](CO)NC(=O)/C=C/c1c(C)[nH]c(=O)[nH]c1=O` (stereo partly drawn): the T/C (dose: 0.13 mg/kg/injection, vehicle: saline) was 87 % of control; the T/C (dose: 0.25 mg/kg/injection, vehicle: saline) is 90 % of control; the T/C (dose: 0.5 mg/kg/injection, vehicle: saline) was 90 % of control and 91 % of control.
